melting point [°C]	Compound
188 to 192	O=C(O)c1ccc(-c2ccccc2)s1
136	Cc1ccc2c(c1)OC(C)(c1ccc(C)cc1OC(=O)[C@]13CC[C@](C)(C(=O)O1)C3(C)C)CC2(C)C (stereo not given in full)
103	Cc1cc([N+]([O-])=Nc2ccccc2)ccc1N=Nc1ccccc1
39 to 45	O=C1C=C[C@H](CO)O1
122 to 124	Cc1nc(-c2ccccc2)sc1C(=O)Cl
26 to 28	S=C=NCc1ccc(Cl)cc1Cl
43	Cc1ccc(S)cc1
252 to 255	N=C1c2ccccc2C(=O)N1c1n[nH]c2ncccc12
152	O=C1CCCCCCCCCCCN1
93 to 94	Cc1ccc2sc(CO)cc2c1
-44.6	CCCCCCO
150	O=C(O)c1sc(Br)c2c1OCCO2
196	CC(C)(C)N(NC(=O)c1ccccc1)C(=O)c1ccccc1Br
150	NC(=S)c1ccc(F)cc1
111	Nn1c(Cc2ccccc2)nc2ccccc2c1=O
117 to 123	O=S(=O)(CS(=O)(=O)c1ccccc1)c1ccccc1
56	Cc1c(Br)cc([N+](=O)[O-])cc1Br
98	CCN(CC)C(=O)CSc1ccc(Cl)nn1
57.6	c1ccc(CCNc2cccc3cccnc23)cc1
48	O=C(c1ccccc1)C1(O)CCCCC1
124	CCNc1nc(NC(C)(C)C)nc(OC)n1

melting point [°C]	Compound
39.1	CC(C)(SC(=O)N1CCCCC1)c1ccccc1
48 to 50	O=C1NC2CCCCC12 (stereo not given)
9	C=C(C)CCCCCCCCCCCCCCC
203 to 207	Nc1ccc(NC(=O)c2ccc(N)cc2)cc1
33	CC(C)Oc1ccc(S(=O)(=O)Cl)cc1
71 to 76	CC(C)(C)OC(=O)NC(Cc1cccs1)C(=O)O (stereo not given)
38	Oc1cc(F)ccc1F
129	COc1cc(OC)nc(Oc2cccc(Oc3nc(OC)cc(OC)n3)c2C(=O)ON=C(c2ccccc2)c2ccccc2)n1
53 to 59	CCOC(=O)CC(=O)c1ccncc1
118	C/C(OCCc1ccccc1)=C(/C#N)c1ccccc1
270 to 273	COc1cc(C=C2C(=O)NC(=N)N2C)ccc1O
157	CC1NC(=O)NC1CCCCCC(=O)O (stereo not given)
95	C=CCc1cc(OC)c(O)c(C(=O)NCCO)c1
42 to 46	Cc1oc(-c2ccccc2)nc1CN
106	CC(=O)Oc1c(C)cc(OCC(O)CNC(C)C)c(C)c1C (stereo not given)
292 to 293	Cn1c2ccccc2n2c(=O)c3cccnc3c(C#N)c12
146 to 148	CSc1nc2cc(NCc3ccc4c(c3)OCO4)ccc2[nH]1
56	CSc1ccc(O)cc1C
236 to 237	NC(Cc1ccc([N+](=O)[O-])cc1)C(=O)O (racemic)
184	Nc1c2c(nc3ccccc13)CCCC2
203	CC1=C2C3OC(=O)C(C)C3C(O)CC2(C)C=CC1=O (stereo not given)

melting point [°C]	Compound
27	CC(O)C(C)C(C)(C)C (stereo not given)
82 to 83	COc1ccc2nsnc2c1
168 to 170	Cc1cc(Cl)cc(Cl)c1S(N)(=O)=O
154 to 156	O=C(O)c1cccc(-n2cccn2)c1
100	OC12CCCCCC1c1ccccc12 (stereo not given)
25	COC(=O)C=C(CCl)OC
136	CC(=O)c1c(C)c([N+](=O)[O-])c(C(C)(C)C)c([N+](=O)[O-])c1C
172	O=C(Oc1ccc2ccccc2c1)c1cccc(S(=O)(=O)Oc2ccc3ccccc3c2)c1
158	FC(F)(F)c1cc(-c2cccs2)nc2cc(-c3cccs3)nn12
103 to 105	N#Cc1ccc(-n2cccc2)cc1
293	COc1ccc(Nc2nc(N)nnc2-c2ccccc2)cc1
-56.4	C1=CCCC=CCC1
360	COC(=O)NC=Cc1ccc(C=CNC(=O)OC)cc1
189 to 191	O=C(O)c1cccc2c1OCCO2
31	c1coc(CSCc2ccco2)c1
147	O=C1C=CC=C2CC1=CC=CC2=O
27	Nc1cccc(C(F)(F)F)c1Cl
99.5	COc1ccc(C(=O)/C=C/c2cccc(OC)c2OC)c(O)c1
86 to 87	N#CC(C#N)=Nc1ccccc1
< -21	CC(C)C[C@H]1OC[C@@H](C)CO1
60	CC(=O)c1ccsc1

melting point [°C]	Compound
56	O=Cc1cccc(OCc2ccccc2)c1
206	CC1CCC2(OC1)OC1CC3C4CCC5CC(O)CCC5(C)C4CCC3(C)C1C2C (stereo not given)
80	Fc1ccc(P(c2ccc(F)cc2)c2ccc(F)cc2)cc1
205	O=C1c2ccccc2-c2ccc(O)cc21
141 to 143	O=C(C(=O)c1ccc([N+](=O)[O-])cc1)c1ccccc1
209 to 214	COc1ccc(-c2c(C(=O)O)sc(SC)c2C#N)cc1
-9	CC(C)(C)SC(C)(C)C
49	S=c1sccs1
162	Cc1ccc2c(c1C)CCC1C2CC=C2CC(C(=O)O)CCC21C (stereo not given)
104	CCOc1ccc(OC(=O)c2ccccc2)cc1
210 to 212	O=C(O)c1cc(Cl)ccc1N=NC1SC(=S)NC1=O (stereo not given)
277	Cc1ccc(NN=C2C(=O)NN(c3ccccc3)C2=O)cc1
102 to 105	Cc1occc1C(=O)O
5	Cc1cc(Cl)ccc1Cl
72	CN(C)c1ccccc1C(=O)O
174 to 178	O=C(C=Cc1ccccc1)c1ccc(O)cc1
78 to 79	ClCc1csc(-c2ccc(Cl)cc2)n1
-60	CC(O)CO (stereo not given)
77	Nc1ccc(Br)nc1
220	O=C(O)c1cc2nccnc2s1
180	O=C1OC(c2ccccc2)=N/C1=C/c1ccc(-c2ccc(Br)cc2)o1

Compound	melting point [°C]
CC1(C)C(C=C(Cl)Cl)C1C(=O)OCc1c(F)c(F)cc(F)c1F (stereo not given)	32
O=C(O)C(O)C(Cl)(Cl)Cl (stereo not given)	125
CCCC(CC)C1(CC)C(=O)NC(=O)NC1=O (stereo not given)	122
Clc1ccccc1-c1ccccc1	34
CCCC=NO	-29.5
CCOC(=O)C1(c2cccc(O)c2)CCN(C)CC1	110
CC12CCC3C(CCC4CC(C#N)CCC43C)C1CCC2=O (stereo not given)	164
BrCc1nc2ccccc2s1	47
CC(=O)C1CCC2(C)C(CC(=O)C3C4CCC(=O)C4(C)CCC32)C1 (stereo not given)	237
COP(=S)(OC)Oc1ccc(S(=O)(=O)N(C)C)cc1	53
CCC1(N2CCCCC2)C(=O)NC(=O)NC1=O	215
